Laboratory results: PubChem BioAssay (NCI)
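Cultured in 96-well plates, cells were exposed to test compound for 48 hours across five concentrations. At the TGI there is no net growth.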

How the values were obtained:
Test in all cases: inhibition of tumour cell growth, NCI panel, 48 h
[1] = tested on: SW-620 colon
[2] = tested on: 786-0 renal
[3] = tested on: A549 NSCLC
[4] = tested on: CAKI-1 renal
[5] = tested on: XF 498 CNS
[6] = tested on: NCI-H460 lung
[7] = tested on: COLO 205 colon
[8] = tested on: OVCAR-8 ovarian
[9] = tested on: NCI-H23 lung
[10] = tested on: HCT-116 colon
[11] = tested on: SN12C renal
[12] = tested on: A498 renal
[13] = tested on: HCC-2998 colon
[14] = tested on: SF-295 CNS
[15] = tested on: K-562 leukemia
[16] = tested on: SNB-19 CNS
[17] = tested on: SK-OV-3 ovarian
[18] = tested on: NCI-H226 lung
[19] = tested on: MOLT-4 leukemia
[20] = tested on: KM12 colon
[21] = tested on: CCRF-CEM leukemia
[22] = tested on: M19-MEL melanoma
[23] = tested on: OVCAR-5 ovarian
[24] = tested on: LXFL 529 NSCLC
[25] = tested on: HL-60(TB) leukemia
[26] = tested on: TK-10 renal
[27] = tested on: U251 CNS
[28] = tested on: HCT-15 colon
[29] = tested on: EKVX NSCLC
[30] = tested on: NCI-H522 lung
[31] = tested on: OVCAR-4 ovarian
[32] = tested on: HOP-62 NSCLC
[33] = tested on: SK-MEL-2 melanoma
[34] = tested on: UACC-257 melanoma
[35] = tested on: HT29 colon
[36] = tested on: SNB-78 CNS
[37] = tested on: HOP-18 NSCLC
[38] = tested on: SF-268 CNS
[39] = tested on: LOX IMVI melanoma
[40] = tested on: ACHN renal
[41] = tested on: SR leukemia
[42] = tested on: DMS 273 small cell lung
[43] = tested on: MALME-3M melanoma
[44] = tested on: SK-MEL-28 melanoma
[45] = tested on: RXF 393 renal
[46] = tested on: HOP-92 NSCLC
[47] = tested on: IGROV1 ovarian
[48] = tested on: OVCAR-3 ovarian
[49] = tested on: KM20L2 colon
[50] = tested on: DLD-1 colon
[51] = tested on: UACC-62 melanoma
[52] = tested on: UO-31 renal
[53] = tested on: SNB-75 CNS
[54] = tested on: M14 melanoma
[55] = tested on: RPMI-8226 leukemia
[56] = tested on: SF-539 CNS
[57] = tested on: SK-MEL-5 melanoma
[58] = tested on: DMS 114 small cell lung

Work on CC1(C)C(=O)/C=C\C(=O)C(C)(C)C2=CC=C(O2)C(C)(C)C(=O)/C=C\C(=O)C(C)(C)C2=CC=C1O2 yielded a TGI [1] greater than 100 µM, a TGI [2] greater than 100 µM and a TGI [3] greater than 100 µM. For the same compound, the TGI [4] was greater than 100 µM, the TGI [5] was greater than 100 µM and the TGI [6] was greater than 100 µM. It also gave a TGI [7] greater than 100 µM, a TGI [8] greater than 100 µM and a TGI [9] greater than 100 µM. For the same compound, the TGI [10] was greater than 100 µM, the TGI [11] was greater than 100 µM and the TGI [12] was greater than 100 µM. It also gave a TGI [13] greater than 100 µM, a TGI [14] greater than 100 µM and a TGI [15] greater than 100 µM. For the same compound, the TGI [16] was greater than 100 µM, the TGI [17] was greater than 100 µM and the TGI [18] was greater than 100 µM. The TGI [19] was greater than 100 µM, the TGI [20] was greater than 100 µM and the TGI [21] was greater than 100 µM. The TGI [22] was greater than 100 µM, the TGI [23] was greater than 100 µM and the TGI [24] was greater than 100 µM. The TGI [25] was greater than 100 µM, the TGI [26] was greater than 100 µM and the TGI [27] was greater than 100 µM. It also gave a TGI [28] greater than 100 µM, a TGI [29] greater than 100 µM and a TGI [30] greater than 100 µM. It also gave a TGI [31] greater than 100 µM, a TGI [32] greater than 100 µM and a TGI [33] greater than 100 µM. It also gave a TGI [34] greater than 100 µM, a TGI [35] greater than 100 µM and a TGI [36] greater than 100 µM. The TGI [37] was greater than 100 µM, the TGI [38] was greater than 100 µM and the TGI [39] was greater than 100 µM. The TGI [40] was greater than 100 µM, the TGI [41] was greater than 100 µM and the TGI [42] was greater than 100 µM. For the same compound, the TGI [43] was greater than 100 µM, the TGI [44] was greater than 100 µM and the TGI [45] was greater than 100 µM. It also gave a TGI [46] greater than 100 µM, a TGI [47] greater than 100 µM and a TGI [48] greater than 100 µM. The TGI [49] was greater than 100 µM.

For Cc1c(O)c(O)cc[n+]1C1OC(CO)C(O)C1O (stereo not drawn), the TGI [1] was greater than 100 µM, the TGI [2] was greater than 100 µM and the TGI [3] was greater than 100 µM. For the same compound, the TGI [50] was greater than 100 µM, the TGI [4] was greater than 100 µM and the TGI [6] was greater than 100 µM. For the same compound, the TGI [7] was greater than 100 µM, the TGI [8] was greater than 100 µM and the TGI [9] was greater than 100 µM. It also gave a TGI [10] greater than 100 µM, a TGI [11] greater than 100 µM and a TGI [12] greater than 100 µM. It also gave a TGI [51] greater than 100 µM, a TGI [13] greater than 100 µM and a TGI [15] greater than 100 µM. For the same compound, the TGI [16] was greater than 100 µM, the TGI [17] was greater than 100 µM and the TGI [18] was greater than 100 µM. The TGI [52] was greater than 100 µM, the TGI [20] was greater than 100 µM and the TGI [21] was greater than 100 µM. The TGI [22] was greater than 100 µM, the TGI [23] was greater than 100 µM and the TGI [53] was greater than 100 µM. It also gave a TGI [24] greater than 100 µM, a TGI [26] greater than 100 µM and a TGI [27] greater than 100 µM. It also gave a TGI [28] greater than 100 µM, a TGI [29] greater than 100 µM and a TGI [30] greater than 100 µM. The TGI [31] was greater than 100 µM, the TGI [33] was greater than 100 µM and the TGI [34] was greater than 100 µM. The TGI [35] was greater than 100 µM, the TGI [54] was greater than 100 µM and the TGI [36] was greater than 100 µM. For the same compound, the TGI [37] was greater than 100 µM, the TGI [38] was greater than 100 µM and the TGI [39] was greater than 100 µM. It also gave a TGI [40] greater than 100 µM, a TGI [42] greater than 100 µM and a TGI [43] greater than 100 µM. The TGI [44] was greater than 100 µM, the TGI [45] was greater than 100 µM and the TGI [46] was greater than 100 µM. For the same compound, the TGI [47] was greater than 100 µM, the TGI [55] was greater than 100 µM and the TGI [49] was greater than 100 µM.

Compound C1=C2/CC[C@H](Sc3ccccc3)C2C2(CCCCC/1)OCCO2 (stereo partly drawn) has a TGI [1] greater than 100 µM, a TGI [2] greater than 100 µM and a TGI [50] greater than 100 µM. It also gave a TGI [5] of 58.6 µM, a TGI [6] of 73.9 µM and a TGI [7] of 37.8 µM. The TGI [8] was greater than 100 µM, the TGI [9] was 63.3 µM and the TGI [56] was greater than 100 µM. The TGI [10] was 37.1 µM, the TGI [11] was greater than 100 µM and the TGI [51] was 64.5 µM. The TGI [13] was 67.9 µM, the TGI [14] was greater than 100 µM and the TGI [15] was greater than 100 µM. It also gave a TGI [16] greater than 100 µM, a TGI [18] of 60.4 µM and a TGI [19] greater than 100 µM. The TGI [20] was 94 µM, the TGI [21] was greater than 100 µM and the TGI [22] was 33.5 µM. It also gave a TGI [53] of 88.2 µM, a TGI [25] greater than 100 µM and a TGI [26] greater than 100 µM. For the same compound, the TGI [27] was greater than 100 µM, the TGI [29] was greater than 100 µM and the TGI [32] was 58.2 µM. For the same compound, the TGI [33] was 32.7 µM, the TGI [34] was 45.2 µM and the TGI [35] was 28 µM. It also gave a TGI [36] greater than 100 µM, a TGI [37] greater than 100 µM and a TGI [38] greater than 100 µM. For the same compound, the TGI [39] was 28.9 µM, the TGI [40] was 85.9 µM and the TGI [41] was greater than 100 µM. The TGI [42] was greater than 100 µM, the TGI [43] was 55.2 µM and the TGI [44] was greater than 100 µM. It also gave a TGI [45] of 43.4 µM, a TGI [46] of 29.6 µM and a TGI [47] greater than 100 µM. It also gave a TGI [55] of 73.7 µM, a TGI [48] of 72.1 µM and a TGI [49] of 37.1 µM.

Cc1cc(NS(=O)(=O)c2ccc(Nc3c4ccccc4nc4c(C(=O)N5CCN(CCOS(C)(=O)=O)CC5)cccc34)cc2)no1 showed a TGI [2] greater than 100 µM, a TGI [3] greater than 100 µM and a TGI [50] greater than 100 µM. For the same compound, the TGI [4] was greater than 100 µM, the TGI [5] was greater than 100 µM and the TGI [6] was greater than 100 µM. For the same compound, the TGI [7] was greater than 100 µM, the TGI [8] was greater than 100 µM and the TGI [9] was greater than 100 µM. For the same compound, the TGI [56] was greater than 100 µM, the TGI [10] was greater than 100 µM and the TGI [11] was greater than 100 µM. It also gave a TGI [12] greater than 100 µM, a TGI [51] greater than 100 µM and a TGI [13] greater than 100 µM. The TGI [14] was greater than 100 µM, the TGI [15] was greater than 100 µM and the TGI [16] was greater than 100 µM. The TGI [17] was greater than 100 µM, the TGI [18] was greater than 100 µM and the TGI [19] was greater than 100 µM. The TGI [52] was greater than 100 µM, the TGI [20] was greater than 100 µM and the TGI [21] was greater than 100 µM. It also gave a TGI [22] greater than 100 µM, a TGI [23] greater than 100 µM and a TGI [53] greater than 100 µM. The TGI [25] was greater than 100 µM, the TGI [26] was greater than 100 µM and the TGI [27] was greater than 100 µM. The TGI [28] was greater than 100 µM, the TGI [31] was greater than 100 µM and the TGI [32] was greater than 100 µM. It also gave a TGI [33] greater than 100 µM, a TGI [34] greater than 100 µM and a TGI [35] greater than 100 µM. It also gave a TGI [54] greater than 100 µM, a TGI [36] greater than 100 µM and a TGI [38] greater than 100 µM. It also gave a TGI [40] greater than 100 µM, a TGI [42] greater than 100 µM and a TGI [57] greater than 100 µM. It also gave a TGI [43] greater than 100 µM, a TGI [58] greater than 100 µM and a TGI [44] greater than 100 µM. For the same compound, the TGI [45] was greater than 100 µM, the TGI [46] was greater than 100 µM and the TGI [47] was greater than 100 µM. The TGI [55] was greater than 100 µM, the TGI [48] was greater than 100 µM and the TGI [49] was greater than 100 µM.
